# Test results reported in US12234221B2, “Pyridine carboxamide compounds for inhibiting NAV1.8” (Lieber Institute, Inc., priority 2018, dated 2025).
# Molecular target: T1, human Nav1.8 (hNav1.8) ion channel (Homo sapiens, UniProt Q9Y5Y9)
# T1 construct: expressed in transfected cells; host or cells: HEK293
# Experiment: Nav1.8 channel inhibition, estimated IC50 (one or more of: fluorescence inhibition assay, PatchXpress, IonFlux HT automated patch clamp)
# Type: cell-based
# Conditions: HEK293 cells stably expressing hNav1.8; method used per compound not stated; read-out: Activity range (estimated IC50)
# In short: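 HEK293 cells stably expressing hNav1.8 with β1/β2 subunits; IC50 from the fluorescence assay and/or automated whole-cell patch clamp (PatchXpress, IonFlux HT). Fluorescence: ANG-2 Na dye, 5 min compound preincubation (0.02–5 μM, 1% DMSO) with 30 μM ouabain, stimulation by 10 μM deltamethrin, peak signal fit logistically. PatchXpress: holding potential reset to Vhalf, inhibition normalized to control/washout currents.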
# T1 sequence (Q9Y5Y9 whole entry): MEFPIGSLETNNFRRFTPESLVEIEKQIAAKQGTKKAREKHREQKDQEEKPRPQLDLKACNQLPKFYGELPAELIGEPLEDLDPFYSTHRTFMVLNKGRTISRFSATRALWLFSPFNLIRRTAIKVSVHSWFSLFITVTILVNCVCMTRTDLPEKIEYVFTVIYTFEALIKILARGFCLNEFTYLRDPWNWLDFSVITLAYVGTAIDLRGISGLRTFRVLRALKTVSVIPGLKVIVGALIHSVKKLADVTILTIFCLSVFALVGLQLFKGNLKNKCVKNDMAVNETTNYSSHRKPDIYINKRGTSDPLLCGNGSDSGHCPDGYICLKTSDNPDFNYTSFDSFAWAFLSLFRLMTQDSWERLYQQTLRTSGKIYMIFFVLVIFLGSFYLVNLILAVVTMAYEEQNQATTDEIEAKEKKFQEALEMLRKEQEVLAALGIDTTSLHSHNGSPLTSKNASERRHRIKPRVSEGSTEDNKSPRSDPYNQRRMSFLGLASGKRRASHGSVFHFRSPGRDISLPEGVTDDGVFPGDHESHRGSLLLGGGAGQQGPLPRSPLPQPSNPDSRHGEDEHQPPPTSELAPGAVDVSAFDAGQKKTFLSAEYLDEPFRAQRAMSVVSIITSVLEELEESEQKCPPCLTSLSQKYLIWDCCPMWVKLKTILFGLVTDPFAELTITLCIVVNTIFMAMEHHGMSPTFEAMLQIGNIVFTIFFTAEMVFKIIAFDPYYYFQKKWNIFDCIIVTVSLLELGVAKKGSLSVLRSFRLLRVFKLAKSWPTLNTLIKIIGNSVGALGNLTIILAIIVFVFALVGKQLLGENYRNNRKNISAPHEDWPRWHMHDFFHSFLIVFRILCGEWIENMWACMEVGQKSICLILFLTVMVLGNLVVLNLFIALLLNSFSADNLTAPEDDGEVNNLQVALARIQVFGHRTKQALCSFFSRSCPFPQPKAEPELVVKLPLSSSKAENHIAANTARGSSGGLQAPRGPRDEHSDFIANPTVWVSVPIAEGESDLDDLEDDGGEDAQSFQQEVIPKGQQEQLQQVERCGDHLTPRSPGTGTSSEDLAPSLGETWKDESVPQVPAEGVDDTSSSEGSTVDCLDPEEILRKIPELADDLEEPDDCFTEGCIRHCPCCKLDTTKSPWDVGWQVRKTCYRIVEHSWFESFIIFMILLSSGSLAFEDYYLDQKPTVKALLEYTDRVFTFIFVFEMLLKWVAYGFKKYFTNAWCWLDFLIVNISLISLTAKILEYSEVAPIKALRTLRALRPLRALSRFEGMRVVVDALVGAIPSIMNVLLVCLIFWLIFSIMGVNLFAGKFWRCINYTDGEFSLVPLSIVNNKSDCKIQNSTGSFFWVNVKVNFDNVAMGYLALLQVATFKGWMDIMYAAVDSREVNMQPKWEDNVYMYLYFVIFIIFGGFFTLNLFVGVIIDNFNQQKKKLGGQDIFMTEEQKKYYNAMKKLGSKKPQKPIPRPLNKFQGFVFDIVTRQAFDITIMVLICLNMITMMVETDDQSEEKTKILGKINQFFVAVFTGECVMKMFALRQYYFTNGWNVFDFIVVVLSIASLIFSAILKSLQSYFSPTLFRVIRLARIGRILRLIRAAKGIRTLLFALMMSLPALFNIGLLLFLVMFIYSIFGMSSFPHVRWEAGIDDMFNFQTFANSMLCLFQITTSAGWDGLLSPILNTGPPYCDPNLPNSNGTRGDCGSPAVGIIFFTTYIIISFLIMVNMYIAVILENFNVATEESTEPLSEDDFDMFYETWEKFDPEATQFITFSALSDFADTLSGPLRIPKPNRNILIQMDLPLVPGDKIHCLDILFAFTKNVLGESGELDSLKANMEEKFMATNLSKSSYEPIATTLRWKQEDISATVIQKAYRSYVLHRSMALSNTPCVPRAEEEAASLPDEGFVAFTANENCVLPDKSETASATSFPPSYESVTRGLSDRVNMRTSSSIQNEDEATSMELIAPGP
row,Compound,IC50 [nM]
1,"CC(=O)c1cccc(NC(=O)c2cc(C(F)(F)F)cnc2Oc2ccc(OC(F)(F)F)cc2Cl)c1 [Example 149, N-(3-acetylphenyl)-2-[2-chloro-4-(trifluoromethoxy)phenoxy]-5-(trifluoromethyl)pyridine-3-carboxamide]",> 1000
2,"CCCc1ccccc1Oc1ncc(C(F)(F)F)cc1C(=O)Nc1cccc(S(C)(=O)=O)c1 [Example 24, N-(3-methylsulfonylphenyl)-2-(2-propylphenoxy)-5-(trifluoromethyl)pyridine-3-carboxamide]",> 1000
3,"CN(C)S(=O)(=O)c1cccc(NC(=O)c2cc(C(F)(F)F)cnc2Oc2ccc(OC(F)(F)F)cc2Cl)c1 [Example 154, 2-[2-chloro-4-(trifluoromethoxy)phenoxy]-N-[3-(dimethylsulfamoyl)phenyl]-5-(trifluoromethyl)pyridine-3-carboxamide]",> 1000
4,"COc1cc(F)ccc1Oc1ncc(Cl)cc1C(=O)Nc1cccc(S(C)(=O)=O)c1 [Example 119, 5-chloro-2-(4-fluoro-2-methoxy-phenoxy)-N-(3-methylsulfonylphenyl)pyridine-3-carboxamide]",500 to 1000
5,"Cn1ncnc1NC(=O)c1cc(C(F)(F)F)cnc1Oc1ccc(OC(F)(F)F)cc1Cl [Example 169, 2-[2-chloro-4-(trifluoromethoxy)phenoxy]-N-(2-methyl-1,2,4-triazol-3-yl)-5-(trifluoromethyl)pyridine-3-carboxamide]",> 1000
6,"O=C(Nc1cc[n+]([O-])cc1)c1cc(C(F)(F)F)cnc1Oc1ccc(OC(F)(F)F)cc1 [Example 141, N-(1-oxidopyridin-1-ium-4-yl)-2-[4-(trifluoromethoxy)phenoxy]-5-(trifluoromethyl)pyridine-3-carboxamide]",< 500
7,"CS(=O)(=O)c1cccc(NC(=O)c2cc(C(F)(F)F)cnc2Oc2ccc(F)cc2)c1 [Example 34, 2-(4-fluorophenoxy)-N-(3-methylsulfonyl-phenyl)-5-(trifluoromethyl)pyridine-3-carboxamide]",> 1000

# The remaining lines, values ahead:
row,IC50 [nM],Compound
1,< 500,"CS(=O)(=O)c1ccc(NC(=O)c2cc(C(F)(F)F)cnc2Oc2ccc(OC(F)(F)F)cc2Cl)cc1 [Example 152, 2-[2-chloro-4-(trifluoromethoxy)phenoxy]-N-(4-methylsulfonylphenyl)-5-(trifluoromethyl)pyridine-3-carboxamide]"
2,< 500,"COc1cc(F)ccc1Oc1ncc(C(F)(F)F)cc1C(=O)Nc1ccncn1 [Example 12, 2-(4-fluoro-2-methoxy-phenoxy)-N-pyrimidin-4-yl-5-(trifluoromethyl)pyridine-3-carboxamide]"
3,< 500,"CN=S(C)(=O)c1cccc(NC(=O)c2cnc(C(F)(F)F)cc2Oc2ccc(F)cc2OC)c1 (centres unmarked) [Example 70, N-[3-(N,S-dimethylsulfonimidoyl)phenyl]-4-(4-fluoro-2-methoxy-phenoxy)-6-(trifluoromethyl)pyridine-3-carboxamide]"
4,< 500,"O=C(Nc1ccnnc1)c1cc(C(F)(F)F)cnc1Oc1ccc(OC(F)(F)F)cc1Cl [Example 161, 2-[2-chloro-4-(trifluoromethoxy)phenoxy]-N-pyridazin-4-yl-5-(trifluoromethyl)pyridine-3-carboxamide]"
5,< 500,"NC(=O)c1cccc(NC(=O)c2cnc(C(F)(F)F)cc2Oc2ccc(OC(F)(F)F)cc2Cl)c1 [Example 81, N-(3-carbamoylphenyl)-4-[2-chloro-4-(trifluoromethoxy)phenoxy]-6-(trifluoromethyl)pyridine-3-carboxamide]"
6,< 500,"CCS(=O)(=O)c1cccc(NC(=O)c2cc(C(F)(F)F)cnc2Oc2ccc(OC(F)(F)F)cc2)c1 [Example 125, N-(3-ethylsulfonylphenyl)-2-[4-(trifluoromethoxy)phenoxy]-5-(trifluoromethyl)pyridine-3-carboxamide]"
7,< 500,"CS(=O)(=O)c1cccc(NC(=O)c2cc(C(F)(F)F)cnc2Oc2ccc(OC(F)(F)F)cc2)c1 [Example 38, N-(3-methylsulfonyl-phenyl)-2-[4-(trifluoromethoxy)phenoxy]-5-(trifluoromethyl)pyridine-3-carboxamide]"
